# From patent US20100204224A1, “AZACYCLIC COMPOUNDS AS INHIBITORS OF SENSORY NEURONE SPECIFIC SODIUM CHANNELS” (priority 2005, published 2010)
# Molecular target: T1, human Nav1.8 (hNav1.8) ion channel (Homo sapiens, UniProt Q9Y5Y9)
# T1 construct: expressed in transfected cells
# Test: Inhibition of human Nav1.8 stably expressed in SH-SY-5Y cells (membrane potential dye fluorescence assay)
# Type: cell-based
# Details: SH-SY-5Y hNav1.8 cells; FLIPR membrane potential dye; 10 μM pyrethroid, 250 nM TTX; test concentration range 100 μM-0.05 μM; read-out: hNav1.8 IC50
# Procedure: Inhibition of Human Nav1.8 stably expressed in SH-SY-5Y Cells
# A SH-SY-5Y neuroblastoma cell line stably expressing the human Nav1.8 (hNav1.8) ion channel was constructed. This cell line has been used to develop a medium to high throughput assay for determining the ability of test compounds to inhibit membrane depolarisation mediated via the hNav1.8 channel.
# SH-SY-5Y hNav1.8 are grown in adherent monolayer culture using 50:50 Ham's F-12/EMEM tissue culture medium supplemented with 15% (v/v) foetal bovine serum; 2 mM L-glutamine, 1% NEAR and 600 μg·ml^−1 Geneticin sulphate. Cells are removed from the tissue culture flask using trypsin/EDTA and re-plated into black walled, clear bottom 96-well assay plates at 50,000 cells·well^−1 24 hours prior to assay.
# On the day of assay the cell assay plates are washed to remove cell culture medium using a sodium free assay buffer (145 mM tetramethyl ammonium chloride; 2 mM calcium chloride; 0.8 mM magnesium chloride hexahydrate; 10 mM HEPES; 10 mM glucose; 5 mM potassium chloride, pH 7.4). Fluorescent membrane potential dye solution (FLIPR™ membrane potential dye, Molecular Devices Corporation), containing 10 μM of a pyrethroid to prevent channel inactivation and 250 nM tetrodotoxin (TTX) to reduce interference from TTX-sensitive sodium channels present in the cell line. Test compound, initially dissolved in dimethyl sulfoxide but further diluted in sodium free buffer, is added to achieve the final test concentration range of 100 μM-0.05 μM.
# Cell plates are incubated for 30 minutes at room temperature to allow equilibration of dye and test compound. Plates are then transferred to a fluorescence plate reader for fluorescence measurement using an excitation wavelength of 530 nm whilst measuring fluorescence emission at 565 nm. Baseline fluorescence levels are first determined before the addition of a sodium containing buffer (220 mM sodium chloride; 2 mM calcium chloride; 0.8 mM magnesium chloride hexahydrate; 10 mM HEPES; 10 mM glucose; 5 mM potassium chloride. pH 7.4) to cause membrane depolarisation in those cells where channel block has not been effected (final sodium concentration=72.5 mM). Membrane depolarisation is registered by an increase in fluorescence emission at 565 nm.
# The change in fluorescence seen in each test well upon the addition of sodium containing buffer is calculated relative to the baseline fluorescence for that well. This figure is then used for calculating the IC50 for each test compound.
# T1 sequence (Q9Y5Y9 whole entry): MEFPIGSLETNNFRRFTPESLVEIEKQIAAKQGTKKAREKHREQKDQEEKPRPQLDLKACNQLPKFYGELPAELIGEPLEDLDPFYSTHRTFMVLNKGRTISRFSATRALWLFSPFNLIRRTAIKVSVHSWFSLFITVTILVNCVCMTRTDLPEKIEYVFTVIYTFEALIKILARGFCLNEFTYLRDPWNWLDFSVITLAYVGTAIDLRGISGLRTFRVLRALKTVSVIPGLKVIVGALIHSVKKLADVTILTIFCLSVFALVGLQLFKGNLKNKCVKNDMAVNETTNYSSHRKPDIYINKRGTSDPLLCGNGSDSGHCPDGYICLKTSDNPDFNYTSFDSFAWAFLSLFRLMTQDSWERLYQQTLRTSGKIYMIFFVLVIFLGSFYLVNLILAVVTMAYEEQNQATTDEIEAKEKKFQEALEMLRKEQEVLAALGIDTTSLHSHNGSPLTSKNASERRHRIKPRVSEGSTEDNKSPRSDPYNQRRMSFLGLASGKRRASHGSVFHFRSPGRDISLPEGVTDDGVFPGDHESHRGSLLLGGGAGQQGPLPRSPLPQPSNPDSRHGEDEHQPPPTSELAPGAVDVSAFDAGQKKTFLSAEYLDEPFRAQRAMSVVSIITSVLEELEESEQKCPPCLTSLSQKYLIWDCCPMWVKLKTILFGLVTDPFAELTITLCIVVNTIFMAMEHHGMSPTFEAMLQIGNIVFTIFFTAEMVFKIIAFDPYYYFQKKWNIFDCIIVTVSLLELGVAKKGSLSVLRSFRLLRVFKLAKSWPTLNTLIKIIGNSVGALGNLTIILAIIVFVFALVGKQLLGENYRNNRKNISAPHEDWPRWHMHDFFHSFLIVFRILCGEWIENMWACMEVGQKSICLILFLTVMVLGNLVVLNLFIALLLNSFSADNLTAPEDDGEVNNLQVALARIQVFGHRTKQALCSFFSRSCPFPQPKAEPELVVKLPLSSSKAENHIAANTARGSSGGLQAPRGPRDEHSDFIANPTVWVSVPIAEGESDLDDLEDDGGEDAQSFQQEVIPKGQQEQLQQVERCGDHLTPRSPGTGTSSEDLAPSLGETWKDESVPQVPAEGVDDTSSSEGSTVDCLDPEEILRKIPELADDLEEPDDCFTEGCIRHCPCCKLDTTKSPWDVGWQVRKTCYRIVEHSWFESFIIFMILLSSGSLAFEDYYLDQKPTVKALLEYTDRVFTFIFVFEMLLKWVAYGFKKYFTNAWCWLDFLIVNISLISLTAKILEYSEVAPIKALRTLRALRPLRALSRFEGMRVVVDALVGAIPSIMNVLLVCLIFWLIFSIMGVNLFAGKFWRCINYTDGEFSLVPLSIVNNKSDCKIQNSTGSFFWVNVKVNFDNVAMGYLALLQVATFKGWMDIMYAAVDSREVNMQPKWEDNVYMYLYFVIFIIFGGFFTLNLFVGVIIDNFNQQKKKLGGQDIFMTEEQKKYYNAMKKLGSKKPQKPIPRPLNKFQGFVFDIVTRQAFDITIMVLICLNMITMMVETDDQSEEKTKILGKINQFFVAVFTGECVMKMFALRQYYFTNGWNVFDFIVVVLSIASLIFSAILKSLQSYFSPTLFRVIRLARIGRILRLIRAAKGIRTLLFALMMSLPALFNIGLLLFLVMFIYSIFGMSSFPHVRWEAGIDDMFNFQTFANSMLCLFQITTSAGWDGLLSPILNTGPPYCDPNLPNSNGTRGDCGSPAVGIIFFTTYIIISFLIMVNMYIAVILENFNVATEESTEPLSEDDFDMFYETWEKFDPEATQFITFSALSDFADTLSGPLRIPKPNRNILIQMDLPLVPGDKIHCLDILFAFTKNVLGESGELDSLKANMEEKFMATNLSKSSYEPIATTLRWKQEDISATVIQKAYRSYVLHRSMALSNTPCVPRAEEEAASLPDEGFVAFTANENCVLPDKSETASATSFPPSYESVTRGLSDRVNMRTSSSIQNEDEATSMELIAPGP
row,Molecule,IC50 [nM]
1,"1-{5-[1-(2,5-Dichloro-phenyl)-ethyl]-2,5-diaza-bicyclo[2.2.1]hept-2-yl}-2-[4-(4-fluoro-phenoxy)-phenyl]-ethanone [Example 157]",≥ 30000
2,"CC(c1ccccc1Cl)N1CC2CC1CN2C(=O)Nc1ccc(Oc2ccccc2)cc1 (single isomer, unassigned) [Example 11, 5-[1-(2-Chloro-phenyl)-ethyl]-2,5-diaza-bicyclo[2.2.1]heptane-2-carboxylic acid (4-phenoxy-phenyl)-amide]",1800
3,"CC(c1ccccc1Cl)N1CC2CC1CN2C(=O)Nc1ccc(Oc2ccccc2)cc1 (single isomer, unassigned) [Example 12, 5-[1-(2-Chloro-phenyl)-ethyl]-2,5-diaza-bicyclo[2.2.1]heptane-2-carboxylic acid (4-phenoxy-phenyl)-amide]",360
4,"CC(c1ccccc1C(F)(F)F)N1CC2CC1CN2C(=O)Nc1ccc(C(F)(F)F)cc1 (single isomer, unassigned) [Example 54, 5-[1-(2-Trifluoromethyl-phenyl)-ethyl]-2,5-diaza-bicyclo[2.2.1]heptane-2-carboxylic acid (4-trifluoromethyl-phenyl)-amide]",1750
5,"CC(c1ccccc1C(F)(F)F)N1CC2CC1CN2C(=O)Nc1ccc(C(F)(F)F)cc1 (single isomer, unassigned) [Example 56, 5-[1-(2-Trifluoromethyl-phenyl)-ethyl]-2,5-diaza-bicyclo[2.2.1]heptane-2-carboxylic acid (4-trifluoromethyl-phenyl)-amide]",7910
6,"CC(c1ccccc1C(F)(F)F)N1CC2CC1CN2C(=O)Nc1ccc(Oc2ccccc2)cc1 (single isomer, unassigned) [Example 60, 5-[1-(2-Trifluoromethyl-phenyl)-ethyl]-2,5-diaza-bicyclo[2.2.1]heptane-2-carboxylic acid (4-phenoxy-phenyl)-amide]",1480
7,"CC(c1ccccc1C(F)(F)F)N1CC2CC1CN2C(=O)Nc1ccc(Oc2ccccc2)cc1 (single isomer, unassigned) [Example 62, 5-[1-(2-Trifluoromethyl-phenyl)-ethyl]-2,5-diaza-bicyclo[2.2.1]heptane-2-carboxylic acid (4-phenoxy-phenyl)-amide]",17200
8,"CC(c1ccccc1Cl)N1CC2CC1CN2C(=O)Nc1ccc(Oc2ccc(F)cc2)cc1 (single isomer, unassigned) [Example 73, 5-[1-(2-Chloro-phenyl)-ethyl]-2,5-diaza-bicyclo[2.2.1]heptane-2-carboxylic acid [4-(4-fluoro-phenoxy)-phenyl]-amide]",1130
9,"CC(c1ccccc1Cl)N1CC2CC1CN2C(=O)Nc1ccc(Oc2ccc(F)cc2)cc1 (single isomer, unassigned) [Example 76, 5-[1-(2-Chloro-phenyl)-ethyl]-2,5-diaza-bicyclo[2.2.1]heptane-2-carboxylic acid [4-(4-fluoro-phenoxy)-phenyl]-amide]",270
10,"CC(c1ccccc1Cl)N1CC2CC1CN2C(=O)c1ccc(Oc2ccc(F)cc2)c(F)c1 (single isomer, unassigned) [Example 176, {5-[1-(2-Chloro-phenyl)-ethyl]-2,5-diaza-bicyclo[2.2.1]hept-2-yl}-[3-fluoro-4-(4-fluoro-phenoxy)-phenyl]-methanone]",430
11,"CC(c1ccccc1Cl)N1CC2CC1CN2C(=O)c1ccc(Oc2ccc(F)cc2)c(F)c1 (single isomer, unassigned) [Example 177, {5-[1-(2-Chloro-phenyl)-ethyl]-2,5-diaza-bicyclo[2.2.1]hept-2-yl}-[3-fluoro-4-(4-fluoro-phenoxy)-phenyl]-methanone]",740
12,"Cc1ccsc1CN1CC2CC1CN2C(=O)Nc1ccc(Oc2ccccc2)cc1 (stereo not drawn) [Example 1, 5-(3-Methyl-thiophen-2-ylmethyl)-2,5-diaza-bicyclo[2.2.1]heptane-2-carboxylic acid (4-phenoxy-phenyl)-amide]",410
13,"Cc1ccsc1CN1CC2CC1CN2C(=O)Nc1ccc(Oc2ccccc2)nc1 (stereo not drawn) [Example 2, 5-(3-Methyl-thiophen-2-ylmethyl)-2,5-diaza-bicyclo[2.2.1]heptane-2-carboxylic acid (6-phenoxy-pyridin-3-yl)-amide]",3740
14,"CCCCOc1ccc(NC(=O)N2CC3CC2CN3Cc2sccc2C)cc1 (stereo not drawn) [Example 3, 5-(3-Methyl-thiophen-2-ylmethyl)-2,5-diaza-bicyclo[2.2.1]heptane-2-carboxylic acid (4-butoxy-phenyl)-amide]",1030
15,"Cc1ccccc1C(C)N1CC2CC1CN2C(=O)Nc1ccc(Oc2ccccc2)cc1 (stereo not drawn) [Example 4, 5-(1-o-Tolyl-ethyl)-2,5-diaza-bicyclo[2.2.1]heptane-2-carboxylic acid (4-phenoxy-phenyl)-amide]",320
16,"CCCCOc1ccc(NC(=O)N2CC3CC2CN3C(C)c2ccccc2C)cc1 (stereo not drawn) [Example 5, 5-(1-o-Tolyl-ethyl)-2,5-diaza-bicyclo[2.2.1]heptane-2-carboxylic acid (4-butoxy-phenyl)-amide]",570
17,"Cc1ccccc1C(C)N1CC2CC1CN2C(=O)Nc1ccc(C(F)(F)F)cc1 (stereo not drawn) [Example 6, 5-(1-o-Tolyl-ethyl)-2,5-diaza-bicyclo[2.2.1]heptane-2-carboxylic acid (4-trifluoromethyl-phenyl)-amide]",990
18,"CC(c1ccc(F)cc1Cl)N1CC2CC1CN2C(=O)Nc1ccc(Oc2ccccc2)cc1 (stereo not drawn) [Example 7, 5-[1-(2-Chloro-4-fluoro-phenyl)-ethyl]-2,5-diaza-bicyclo[2.2.1]heptane-2-carboxylic acid (4-phenoxy-phenyl)-amide]",4320
19,"Cc1ccccc1C(C)N1CC2CC1CN2C(=O)Nc1cccc(Oc2ccccc2)c1 (stereo not drawn) [Example 8, 5-(1-o-Tolyl-ethyl)-2,5-diaza-bicyclo[2.2.1]heptane-2-carboxylic acid (3-phenoxy-phenyl)-amide]",680
20,"CC(c1c(F)cccc1F)N1CC2CC1CN2C(=O)Nc1ccc(Oc2ccccc2)cc1 (stereo not drawn) [Example 9, 5-[1-(2,6-Difluoro-phenyl)-ethyl]-2,5-diaza-bicyclo[2.2.1]heptane-2-carboxylic acid (4-phenoxy-phenyl)-amide]",870
21,"CC(c1c(F)cccc1F)N1CC2CC1CN2C(=O)Nc1ccc(Oc2ccccc2)cc1 (stereo not drawn) [Example 10, 5-[1-(2,6-Difluoro-phenyl)-ethyl]-2,5-diaza-bicyclo[2.2.1]heptane-2-carboxylic acid (4-phenoxy-phenyl)-amide]",1100

# Same assay, conditions: hNav1.8 IC50, SH-SY-5Y hNav1.8 cells; FLIPR membrane potential dye; 10 μM pyrethroid, 250 nM TTX; test concentration range 100 μM-0.05 μM
row,Molecule,IC50 [nM]
1,"Cc1ccccc1C(C)N1CC2CC1CN2C(=O)Nc1ccc(Oc2ccc(F)cc2)cc1 (single isomer, unassigned) [Example 29, 5-(1-o-Tolyl-ethyl)-2,5-diaza-bicyclo[2.2.1]heptane-2-carboxylic acid [4-(4-fluoro-phenoxy)-phenyl]-amide]",340
2,"Cc1ccccc1C(C)N1CC2CC1CN2C(=O)Nc1ccc(Oc2ccc(F)cc2)cc1 (single isomer, unassigned) [Example 74, 5-(1-o-Tolyl-ethyl)-2,5-diaza-bicyclo[2.2.1]heptane-2-carboxylic acid [4-(4-fluoro-phenoxy)-phenyl]-amide]",110
3,"CC(c1ccc(F)cc1Cl)N1CC2CC1CN2C(=O)Cc1ccc(Oc2ccc(F)cc2)cc1 (single isomer, unassigned) [Example 161, 1-{5-[1-(2-Chloro-4-fluoro-phenyl)-ethyl]-2,5-diaza-bicyclo[2.2.1]hept-2-yl}-2-[4-(4-fluoro-phenoxy)-phenyl]-ethanone]",4750
4,"CC(c1ccc(F)cc1Cl)N1CC2CC1CN2C(=O)Cc1ccc(Oc2ccc(F)cc2)cc1 (single isomer, unassigned) [Example 162, 1-{5-[1-(2-Chloro-4-fluoro-phenyl)-ethyl]-2,5-diaza-bicyclo[2.2.1]hept-2-yl}-2-[4-(4-fluoro-phenoxy)-phenyl]-ethanone]",18300
5,"CC(c1c(F)cccc1Cl)N1CC2CC1CN2C(=O)Cc1ccc(Oc2ccc(F)cc2)cc1 (single isomer, unassigned) [Example 165, 1-{5-[1-(2-Chloro-6-fluoro-phenyl)-ethyl]-2,5-diaza-bicyclo[2.2.1]hept-2-yl}-2-[4-(4-fluoro-phenoxy)-phenyl]-ethanone]",1230
6,"CC(c1c(F)cccc1Cl)N1CC2CC1CN2C(=O)Cc1ccc(Oc2ccc(F)cc2)cc1 (single isomer, unassigned) [Example 166, 1-{5-[1-(2-Chloro-6-fluoro-phenyl)-ethyl]-2,5-diaza-bicyclo[2.2.1]hept-2-yl}-2-[4-(4-fluoro-phenoxy)-phenyl]-ethanone]",3910
